In patent US20260174739A1 (priority 2022, published 2026):
pIC50: −log10 of the molar value. Read-outs that look alike come from different tables or passages of the source.

Columns and labels:
[1] = In vivo metabolism (pharmacokinetic) experiment in mice; set-up: species or system male ICR mice; details: male, ICR, mouse, po, 10 mg/kg, male ICR mice; for bioavailability: oral 10 mg/kg vs iv 2.5 mg/kg, read-out: F (%); for AUC(0-inf) / Cmax / half-life: oral 10 mg/kg, plasma; for AUC(0-inf): read-out: AUC0-inf(po); for Cmax: read-out: Cmax (po); for half-life: read-out: T1/2 (po) (converted)
Method: Animal: male ICR mice. The animals were randomly assigned to treatment groups and fasted for 12 h prior to dosing.
Drug: the compound of the present disclosure was dissolved in a vehicle (5% DMSO+5% Solutol HS15+90% saline). For intravenous (iv) administration, the dose was 2.5 mg/kg with a dosing volume of 5 mL/kg; for oral (po) administration, the dose was 10 mg/kg with a dosing volume of 10 mL/kg body weight. Sample collection and bioanalysis: blood was collected from the orbit of the mice and added into EP tubes containing heparin sodium at 0.083, 0.25, 0.5, 1, 2, 4, 6, and 8 h (n=3 for each time point). Immediately after blood collection, the mice were euthanized by cervical dislocation, and mouse brains were collected at the corresponding time points. All samples were promptly collected, snap-frozen, and stored at −70° C. for later use. Plasma samples were obtained by centrifugation of whole blood. 10 μL of plasma was mixed with 190 μL of internal standard solution (20 ng/ml in acetonitrile containing 0.1% formic acid). After mixing, the samples were centrifuged at 13000 rpm for 10 min, and 120 μL of the supernatant was separately collected. Depending on the sensitivity of the compound, 0.5-10 μL of the supernatant was taken for drug analysis using the appropriate liquid chromatography-tandem mass spectrometry (LC-MS/MS). Each analyte was calibrated and identified using standards. According to brain tissue: the extract (50% acetonitrile/water) at a ratio of 1 g:8 mL was homogenized for 2 min using five 3 mm magnetic beads in an OMNI Bead Ruptor 24 Elite homogenizer at 3.2 m/s and centrifuged at 4° C. and 3000 g for 3 min. 50 μL of the supernatant was mixed with 200 μL of internal standard solution (20 ng/mL in 80% acetonitrile/water). After mixing, the samples were centrifuged at 13,000 rpm for 10 min, and 120 μL of the supernatant was separately collected. Depending on the sensitivity of the compound, 0.5-10 μL of the supernatant was taken for drug analysis using the appropriate LC-MS/MS method. Each analyte was calibrated and identified using standards.
Data analysis: drug concentrations below the lower limit of quantification (LLOQ) were considered zero. Pharmacokinetic parameters were analyzed using PK Solver with a non-compartmental, bolus injection or extravascular input analysis models. Data points below the LLOQ were excluded to improve the efficacy of t1/2 calculation.

male C57 mice = test: Forced swim test; assay type: in vivo; details: intraperitoneal injection, test 0.5 h after dosing, motionless time in last 4 min
Method: Drug: the compound of the present disclosure was first uniformly mixed with 5% DMSO and 5% Solutol® HS 15. hysiological saline was then added to make up 90% of the final volume. The mixture was prepared at an appropriate concentration immediately before use.
Animal: male C57 mice, about 22 g. The animals were randomly divided into a blank control group and test drug groups, 8 animals per group, and mice in each group were administered either the vehicle or the test compound via intraperitoneal injection.
Experimental steps: the mice were subjected to forced swim test 0.5 h after dosing. The water level in the forced swim device was 45 cm, and the water temperature was 25° C. The mice were placed in an experimental room to adapt to the environment for 1 h before the experiment began. When the experiment began, the mice were placed in the device for 6 min, and the whole process was recorded by a camera. Only the motionless time of the mice in the last 4 min was counted when data were analyzed.

[2] = Human liver microsome assay (metabolic stability); assay type: in vitro ADME; details: for half-life at 1 μM / CLint scaled at 1 μM: pH 7.4
Method: Control and reagent: NADPH, magnesium chloride, testosterone, phosphate buffer, etc. were supplied by Dalian Meilun Biotech Co., Ltd., etc.
Liver microsome: human liver microsomes were supplied by Corning.
Experimental step: the liver microsome incubations were performed in 96-well plates, each incubation system having a volume of 200 μL, in a medium of 0.1 M phosphate buffer (pH 7.4), including liver microsomes at a final concentration of 0.2 mg/mL, 1 μM of the test drug, 3.0 mM MgCl2, 0.01% DMSO, 0.5% acetonitrile, and 2.0 mM NADPH. The incubation system described above without NADPH was pre-incubated at 37° C. for 5 min using a rotary water bath constant temperature oscillator. NADPH was added to initiate the reaction. At 0, 5, 15, 30, and 60 min, 20 μL of the sample was taken out from the incubation system after mixing well and added to 200 μL of acetonitrile containing an internal standard to terminate the reaction. Under the same conditions, 1 μM testosterone was used as a positive control to assess the reliability of the reaction system. For the negative control, phosphate buffer was used instead of NADPH, and all other incubation conditions remained the same. At 60 min, 20 μL of the sample was taken out after mixing well and added to 200 μL of termination solution containing an internal standard to terminate the reaction.
Sample analysis: After treatments such as precipitated protein extraction with an organic solvent, the incubated sample was analyzed using liquid chromatography-tandem mass spectrometry (LC-MS/MS). The concentrations of the test drug or the positive control drug in the sample were semi-quantified. The concentration in the sample was expressed using the ratio of the analyte peak area to the internal standard peak area.
Data processing and analysis: A standard curve of the In residual rate of the drug in the incubation system with respect to the incubation time was plotted by using Excel software, linear regression was performed to obtain a slope k, and the half-life T1/2 (min) and the intrinsic clearance CLint (mL/min/kg) were calculated according to the following formula: […]

human DAT = human DAT (Homo sapiens, UniProt Q01959); test: DAT transporter inhibitory activity test (neurotransmitter transporter uptake assay kit); assay type: cell-based
Method: Transporter inhibition of human DAT and NET expressed in HEK-293 cells was assessed using a neurotransmitter transporter uptake assay kit. The assay was performed as described in the kit instructions, using centanafadine as a positive control. The specific procedures were as follows:
DAT stably transfected culture: The DAT-HEK cell line was cultured in DMEM medium containing 10% fetal bovine serum and 0.2 mg/mL hygromycin B at 37° C. with 5% carbon dioxide.
DAT stably transfected cell passage: the old medium was removed, and the cells were washed once with PBS; 1 mL of TrypLE™ Express solution was then added, and the cells were incubated at 37° C. for about 2 min. When the cells were detached from the bottom of the dish, about 5 mL of complete medium pre-heated at 37° C. was added. The cell suspension was gently pipetted to separate the aggregated cells. The cell suspension was transferred to a sterile centrifuge tube and centrifuged at 1000 rpm for 5 min. In order to maintain the physiological activity of the cells, the experimental cell confluence was controlled at about 80%.
• a) After overnight transfection of NET cells, the cells were digested with trypsin, resuspended with DMEM+10% Dialyzed FBS medium, seeded into a 384-well plate at 20000 cells/well, and incubated overnight. […] After centrifuging, the plate was incubated at 37° C. for 30 min. • e) A detection reagent was prepared using 1×HBSS, and 16 μL of the detection reagent was added to each well. […] Curve fitting and IC50 calculation were performed using GraphPad Prism software nonlinear regression method.

human SERT = human SERT (Homo sapiens, UniProt P31645); test: Inhibitory activity assay against 5-HT transporter (neurotransmitter transporter uptake assay kit); assay type: cell-based; details: HEK-293 cells overexpressing human SERT; read-out: 5-HTT (IC50)
Method: In HEK-293 cells overexpressing human SERT, the transporter inhibitory effect of the test compound on human SERT was assayed using a Neurotransmitter transporter uptake assay kit (Molecular devices).

[3] = human liver microsomes 0.2 mg/mL, 1 μM test drug, NADPH, 37° C., read-out: Half-life (t1/2, min)
[4] = human liver microsomes 0.2 mg/mL, 1 μM test drug, NADPH, 37° C., read-out: Intrinsic clearance (Clint, mL/min/kg)

Sequence of human DAT (Q01959 whole entry): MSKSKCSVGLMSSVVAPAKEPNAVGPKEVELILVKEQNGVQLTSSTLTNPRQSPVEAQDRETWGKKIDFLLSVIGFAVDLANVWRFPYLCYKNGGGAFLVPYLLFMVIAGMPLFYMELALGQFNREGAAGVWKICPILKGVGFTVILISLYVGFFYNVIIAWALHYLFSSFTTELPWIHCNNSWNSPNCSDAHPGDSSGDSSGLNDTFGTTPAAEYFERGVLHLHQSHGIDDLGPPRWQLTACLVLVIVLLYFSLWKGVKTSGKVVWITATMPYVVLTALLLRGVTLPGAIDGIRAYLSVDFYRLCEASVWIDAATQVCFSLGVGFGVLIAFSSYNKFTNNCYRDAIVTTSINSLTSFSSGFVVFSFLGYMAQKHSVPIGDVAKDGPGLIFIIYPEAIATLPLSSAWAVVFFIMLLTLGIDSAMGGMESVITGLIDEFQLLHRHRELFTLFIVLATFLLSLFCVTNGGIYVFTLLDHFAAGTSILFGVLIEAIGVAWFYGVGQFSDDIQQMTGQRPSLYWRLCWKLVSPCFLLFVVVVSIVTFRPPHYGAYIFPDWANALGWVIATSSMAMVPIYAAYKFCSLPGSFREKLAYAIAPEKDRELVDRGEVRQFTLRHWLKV
Sequence of human SERT (P31645 whole entry): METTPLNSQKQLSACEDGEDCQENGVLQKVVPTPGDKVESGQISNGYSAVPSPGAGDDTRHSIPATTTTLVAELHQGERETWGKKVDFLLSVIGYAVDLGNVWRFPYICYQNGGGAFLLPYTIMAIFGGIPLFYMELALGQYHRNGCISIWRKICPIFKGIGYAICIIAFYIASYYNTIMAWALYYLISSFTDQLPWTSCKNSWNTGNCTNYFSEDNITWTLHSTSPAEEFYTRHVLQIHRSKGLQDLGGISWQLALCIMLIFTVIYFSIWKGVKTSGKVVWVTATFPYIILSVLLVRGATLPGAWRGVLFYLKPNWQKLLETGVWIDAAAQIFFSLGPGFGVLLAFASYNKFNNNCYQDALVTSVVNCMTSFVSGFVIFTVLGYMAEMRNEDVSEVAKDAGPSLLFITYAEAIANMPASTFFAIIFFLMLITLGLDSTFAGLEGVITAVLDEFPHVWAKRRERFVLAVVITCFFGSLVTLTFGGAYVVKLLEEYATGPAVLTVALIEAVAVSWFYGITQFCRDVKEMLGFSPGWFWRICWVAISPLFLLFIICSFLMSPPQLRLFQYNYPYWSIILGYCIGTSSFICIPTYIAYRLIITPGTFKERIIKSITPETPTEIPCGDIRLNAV

Nc1nc2c(s1)CC(N)(c1ccccc1)CC2 (racemic) [rac-A1, 6-phenyl-4,5,6,7-tetrahydrobenzothiazole-2,6-diamine]
bioavailability [1]: 132%
AUC(0-inf) [1]: 2830 ng·h/mL
Cmax [1]: 413 ng/mL
half-life [1]: 4.68 h
Effective dose (male C57 mice): 1 mg/kg

CCCNC1(c2ccccc2)CCc2nc(N)sc2C1 (racemic) [rac-A7, 6-phenyl-N^6-propyl-4,5,6,7-tetrahydrobenzothiazole-2,6-diamine]
bioavailability [1]: 55%
AUC(0-inf) [1]: 768 ng·h/mL
Cmax [1]: 208 ng/mL
half-life [1]: 1.72 h
half-life at 1 μM [2, 3]: > 120 min
pIC50 (human DAT): 5.35

Nc1nc2c(s1)CC(N)(c1ccccc1F)CC2 (racemic) [rac-A9, 6-(2-fluorophenyl)-4,5,6,7-tetrahydrobenzothiazole-2,6-diamine]
pIC50 (human SERT): 6.10
Effective dose (male C57 mice): 1 mg/kg

c1ccc(C2(N3CCCC3)CCc3[nH]ncc3C2)cc1 (racemic) [rac-A12, 5-phenyl-5-(pyrrolidin-1-yl)-4,5,6,7-tetrahydro-1H-indazole]
CLint scaled at 1 μM ([2]; human, microsomes): 12.4 mL/min/kg
half-life at 1 μM ([2]; human, microsomes): 327 min
Effective dose (male C57 mice): 1 mg/kg

NC1(c2ccccc2)CCc2ncsc2C1 (racemic) [rac-A14, 6-phenyl-4,5,6,7-tetrahydrobenzothiazol-6-amine]
bioavailability [1]: 105%
AUC(0-inf) [1]: 2900 ng·h/mL
Cmax [1]: 1430 ng/mL
half-life [1]: 1.5 h
half-life at 1 μM [2, 3]: > 120 min
Effective dose (male C57 mice): 3 mg/kg

NC1(c2ccccc2)CCCc2scnc21 (racemic) [rac-A32, 4-phenyl-4,5,6,7-tetrahydrobenzothiazol-4-amine]
half-life at 1 μM [2, 3]: 196 min
CLint scaled at 1 μM [2, 4]: 20.7 mL/min/kg

Nc1nc2c(s1)CCCC2(N)c1ccccc1 (racemic) [rac-A35, 4-phenyl-4,5,6,7-tetrahydrobenzothiazole-2,4-diamine]
AUC(0-inf) [1]: 5110 ng·h/mL
Cmax [1]: 1140 ng/mL
half-life [1]: 2.66 h
Effective dose (male C57 mice): 3 mg/kg

c1ccc(C2(N3CCCC3)CCc3oncc3C2)cc1 (racemic) [rac-A55, 5-phenyl-5-(pyrrolidin-1-yl)-4,5,6,7-tetrahydrobenzo[d]isoxazole]
half-life at 1 μM [2, 3]: 62 min
CLint scaled at 1 μM [2, 4]: 65.8 mL/min/kg
pIC50 (human SERT): 5.14
pIC50 (human DAT; DAT stably transfected HEK cells, read-out: DAT (IC50)): 5.35

c1ccc(C2(N3CCCCC3)CCc3[nH]ncc3C2)cc1 (racemic) [rac-A70, 5-phenyl-5-(piperidin-1-yl)-4,5,6,7-tetrahydro-1H-indazole]
half-life at 1 μM [2, 3]: > 120 min
Effective dose (male C57 mice): 1 mg/kg

c1ccc(C2(N3CCCCC3)CCc3ncsc3C2)cc1 (racemic) [rac-A71, 6-phenyl-6-(piperidin-1-yl)-4,5,6,7-tetrahydrobenzothiazole]
half-life at 1 μM [2, 3]: 210 min
CLint scaled at 1 μM [2, 4]: 13.8 mL/min/kg

Nc1nc2c(s1)CCC(N)(c1ccccc1)C2 (racemic) [rac-A132, 5-phenyl-4,5,6,7-tetrahydrobenzo[d]thiazole-2,5-diamine]
Effective dose (male C57 mice): 3 mg/kg

CCOc1cccc(C2(N)CCc3nc(N)sc3C2)c1 (racemic) [rac-A228, 6-(3-ethoxyphenyl)-4,5,6,7-tetrahydrobenzo[d]thiazole-2,6-diamine]
Effective dose (male C57 mice): 5 mg/kg

Nc1nc2c(s1)CC(N)(c1cccc(OCC(F)(F)F)c1)CC2 (racemic) [rac-A255, 6-(3-(2,2,2-trifluoroethoxy)phenyl)-4,5,6,7-tetrahydrobenzo[d]thiazole-2,6-diamine]
Effective dose (male C57 mice): 5 mg/kg

Nc1nc2c(s1)CC(N)(c1cccc(OC(F)F)c1)CC2 (racemic) [rac-A256, 6-(3-(difluoromethoxy)phenyl)-4,5,6,7-tetrahydrobenzo[d]thiazole-2,6-diamine]
Effective dose (male C57 mice): 5 mg/kg

Nc1nc2c(s1)CC(N)(c1cccc(OCC3CC3)c1)CC2 (racemic) [rac-A259, 6-(3-(cyclopropylmethoxy)phenyl)-4,5,6,7-tetrahydrobenzo[d]thiazole-2,6-diamine]
Effective dose (male C57 mice): 5 mg/kg

CNC1(c2cccc(OC(F)F)c2)CCc2nc(N)sc2C1 (racemic) [rac-A282, 6-(3-(difluoromethoxy)phenyl)-N6-methyl-4,5,6,7-tetrahydrobenzo[d]thiazole-2,6-diamine]
Effective dose (male C57 mice): 5 mg/kg

C[C@]12CC[C@H]3[C@@H](CCC4=CC(=O)CC[C@@]43C)[C@@H]1CC[C@@H]2O [Testosterone, testosterone, reference compound]
Half-life (t1/2, min) ([2]; human liver microsomes 0.2 mg/mL, 1 μM test drug, NADPH, 37° C.): 15.3 min
CLint scaled at 1 μM [2, 4]: 265 mL/min/kg
